Publication PMC11018795, “The regulatory relationship between NAMPT and PD-L1 in cancer and identification of a dual-targeting inhibitor” (EMBO Molecular Medicine, 2024)
Values joined by “and” are separate entries in the source; they are usually repeats but may differ in a detail not shown here. Identical values can stand only once.

Columns and labels:
[1] = tested on: LLC OE NAMPT/PD-L1 tumors; assay: LLC OE NAMPT/PD-L1 tumor-bearing C57BL/6 mice; type: in vivo, mouse; settings: 20 mg/kg i.p.; 14 days; Fig 7B
[2] = tested on: IFN-γ and TNF-α secretion, LLC cells co-cultured with T cells; assay: ELISA of IFN-γ and TNF-α, LLC cells under co-culture condition; type: cell-based, mouse; set-up: unit not given here; settings: in vitro
[3] = tested on: IFN-γ and TNF-α in LLC OE NAMPT/PD-L1 tumor tissues; assay: ELISA of IFN-γ and TNF-α in tumor tissues of LLC OE NAMPT/PD-L1 mouse model; set-up: unit not given here; settings: in vivo, tumor tissue, CQ-85 20 mg/kg
[4] = tested on: glycolytic genes in LLC cells; assay: RT-PCR of glycolytic genes in LLC cells with or without T cells; type: cell-based, mouse; set-up: key to HK2 mRNA level / Glut1 mRNA level / Aldoa mRNA level / Eno1 mRNA level: relative mRNA level normalized to GAPDH (endogenous control)
Procedure: (§1) Total RNA was isolated using TRIzol reagent (Invitrogen, 15596026) according to the manufacturer's protocol. First-strand cDNA synthesis was performed using a RevertAid First Strand cDNA Synthesis Kit (Thermo Fisher, […]). Quantitative real-time PCR analysis was performed by mixing 10 μl SYBR, 0.4 μM forward primer, 0.4 μM reverse primer, 1 μl cDNA, and 8.2 μl distilled water per sample with Top Green qPCR SuperMix (Transgene, AQ601-04) by the manufacturer's protocols. GAPDH was used as an endogenous control. All qRT-PCRs were set up in triplicate using three biological replicates for each sample. Primer information is shown in Appendix Table S1.

[5] = tested on: pyruvate content of LLC cells; assay: Pyruvate (PA) content in LLC cells with or without T cells; type: cell-based, mouse; set-up: unit not given beside the values
Text: Supplement 44321_2024_51_MOESM3_ESM.zip/Fig-2-G.xlsx, sheet "Sheet1" | column: "-T cells; "+T cells

[6] = tested on: NAD+ content of LLC cells; assay: NAD+ content in LLC cells with or without T cells; type: cell-based, mouse; set-up: unit not given here
Procedure: (§2) NAD^+ assays were performed to quantify the total NAD^+ content. NAD^+ assay was performed using the NAD/NADH Assay Kit (ab65348; Abcam) according to the manufacturer’s recommended protocol.

[7] = tested on: glycolytic genes in A549 cells; assay: RT-PCR of glycolytic genes, A549 cells co-cultured with PBMC; type: cell-based, human; set-up: key to Aldoa mRNA level / Eno1 mRNA level / HK2 mRNA level / Glut1 mRNA level: relative mRNA level normalized to GAPDH (endogenous control)
Procedure: as §1

[8] = tested on: glycolytic genes in A549 KO HIF-1α cells; assay: RT-PCR of glycolytic genes, A549 KO HIF-1α cells co-cultured with PBMC; type: cell-based, human; settings: A549 KO HIF-1α co-cultured with PBMC
Procedure: as §1

[9] = tested on: NAD+ content of A549 cells; assay: NAD+ content, A549 cells with or without PBMC; type: cell-based, human; set-up: unit not given here
Procedure: as §2

[10] = tested on: NAD+ content of A549 KO HIF-1α cells; assay: NAD+ content, A549 KO HIF-1α cells with or without PBMC; type: cell-based, human; set-up: unit not given here
Procedure: as §2

[11] = tested on: pyruvate content of A549 cells; assay: Pyruvate (PA) content, A549 cells with or without PBMC; type: cell-based, human; set-up: unit not given beside the values
Text: Supplement 44321_2024_51_MOESM3_ESM.zip/Fig-2-K-PA.xlsx, sheet "Sheet1" | column: A549

[12] = tested on: pyruvate content of A549 KO HIF-1α cells; assay: Pyruvate (PA) content, A549 KO HIF-1α cells with or without PBMC; type: cell-based, human; set-up: unit not given beside the values
Text: Supplement 44321_2024_51_MOESM3_ESM.zip/Fig-2-K-PA.xlsx, sheet "Sheet1" | column: A549 KO HIF-1α

[13] = tested on: NAMPT expression in LLC OE NAMPT/PD-L1 tumors; assay: NAMPT protein expression in LLC constructed xenograft model; type: in vivo, mouse; settings: CQ-85 20 mg/kg vs control group

O=C(c1ncc(CNC2CCOCC2)s1)N1CCc2c(-c3ccc4c(c3)OCCO4)cccc21 [CQ-85]
TIR / tumor growth inhibition (TGI) rate at endpoint [1]: 45.36% | IFN-γ (ELISA) [2]: 156.023 and 118.367 and 126.961 | TNF-α (ELISA) [2]: 198.796 and 198.903 and 183.742 | IFN-γ (ELISA) [3]: 32.0391 and 39.4609 and 37.7422 and 48.3828 | TNF-α (ELISA) [3]: 49.9785 and 53.7419 and 61.1613 and 63.957 | Aldoa mRNA level ([4]; +T Cells): 3.122 and 3.144 and 2.933 | Eno1 mRNA level ([4]; +T Cells): 1.63 and 2.181 and 1.51 | HK2 mRNA level ([4]; +T Cells): 1.976 and 1.225 and 1.397 | Pfk1 mRNA level ([4]; +T Cells): 4.524 and 5.686 and 6.18 | Aldoa mRNA level ([4]; -T Cells): 0.1409 and 0.1113 and 0.07549 | Eno1 mRNA level ([4]; -T Cells): 1.412 and 1.0924 and 0.8165 | Glut1 mRNA level ([4]; -T Cells): 0.4601 and 0.3164 and 0.3635 | HK2 mRNA level ([4]; -T Cells): 1.925 and 1.641 and 1.032 | content of pyruvate (PA) ([5]; +T Cells): 0.4897 and 0.4757 and 0.4584 | content of pyruvate (PA) ([5]; -T Cells): 0.334 and 0.378 and 0.3588 | content of NAD+ ([6]; taken as +T cells by analogy with Fig 2G): 6.631 and 6.489 and 6.614 | content of NAD+ ([6]; taken as -T cells by analogy with Fig 2G): 10.4157 and 11.1416 and 12.0617 | Aldoa mRNA level [7]: 0.8847 and 0.8971 and 0.9885 | Eno1 mRNA level [7]: 1.112 and 1.398 and 1.35 | Glut1 mRNA level [7]: 2.253 and 2.993 and 2.146 | HK2 mRNA level [7]: 5.011 and 5.445 and 5.877 | Pfk1 mRNA level [7]: 1.666 and 1.544 and 1.005 | Aldoa mRNA level [8]: 0.8971 and 0.8909 and 1.1434 | Eno1 mRNA level [8]: 0.7363 and 0.9515 and 0.8284 | Pfk1 mRNA level [8]: 0.9428 and 1.091 and 0.7397 | content of NAD+ ([9]; +PBMC): 9.197 and 8.685 and 8.9355 | content of NAD+ ([9]; -PBMC): 11.8739 and 12.9843 and 12.9544 | content of NAD+ ([10]; +PBMC): 10.9402 and 9.994 and 10.0633 | content of NAD+ ([10]; -PBMC): 11.853 and 11.7415 and 11.8655 | content of pyruvate (PA) ([11]; +PBMC): 0.2271 and 0.2241 and 0.2316 | content of pyruvate (PA) ([11]; -PBMC): 0.1159 and 0.1109 and 0.1297 | content of pyruvate (PA) ([12]; +PBMC): 0.1029 and 0.09765 and 0.1064 | content of pyruvate (PA) ([12]; -PBMC): 0.08688 and 0.08738 and 0.09664 | effect on NAMPT protein expression [13]: upregulate the protein expression of NAMPT
